# Assay results reported in US9549552B2, “Active compound combinations having insecticidal properties” (BAYER CROPSCIENCE AKTIENGESELLSCHAFT, priority 2013, dated 2017).
# Legend:
# Assay type in all cases: in vivo
# Conditions in all cases: mortality
# [1] = tested on: mustard beetle larvae (Phaedon cochleariae); test: Phaedon cochleariae spray test (Example A1, Chinese cabbage leaf disks)
# Procedure: (§1) To produce a suitable preparation of active compound, 1 part by weight of active compound is mixed with the stated amount of solvent and emulsifier, and the concentrate is diluted with emulsifier-containing water to the desired concentration. To produce a suitable preparation of a spore suspension the spores are diluted with emulsifier-containing water to the desired concentration.
# Chinese cabbage (Brassica pekinensis) leaf-disks are sprayed with a preparation of the active ingredient of the desired concentration. Once dry, the leaf disks are infested with mustard beetle larvae (Phaedon cochleariae).
# (§2) After the specified period of time, mortality in % is determined 100% means all beetle larvae have been killed and 0% means none of the beetle larvae have been killed. The mortality values determined thus are recalculated using the Colby-formula (see sheet 1).
# [2] = tested on: fall armyworm larvae (Spodoptera frugiperda); test: Spodoptera frugiperda spray test (Example C3, maize leaf sections)
# Procedure: as §1, with “preparation of the active compound,” for “preparation of active compound,”
# (§3) Maize (Zea mays) leaf sections are sprayed with a preparation of the active ingredient of the desired concentration. Once dry, the leaf sections are infested with fall armyworm larvae (Spodoptera frugiperda).
# (§4) After the specified period of time, mortality in % is determined 100% means all caterpillars have been killed and 0% means none of the caterpillars have been killed. The mortality values determined thus are recalculated using the Colby-formula (see sheet 1).
# [3] = tested on: two spotted spidermite (Tetranychus urticae); test: Tetranychus urticae spray test, OP-resistant (Example B, French beans)
# Procedure: as §1
# French beans (Phaseolus vulgaris) which are heavily infested with all stages of the two spotted spidermite (Tetranychus urticae), are sprayed with a preparation of the active ingredient of the desired concentration.
# After the specified period of time, mortality in % is determined 100% means all spider mites have been killed and 0% means none of the spider mites have been killed. The mortality values determined thus are recalculated using the Colby-formula (see sheet 1).
# [4] = tested on: fall armyworm larvae (Spodoptera frugiperda); test: Spodoptera frugiperda spray test (Example C2, maize leaf sections)
# Procedure: (§5) To produce a suitable preparation of active compound, 1 part by weight of active compound is mixed with the stated amount of solvents and is diluted with water, containing an emulsifier concentration of 1000 ppm, to the desired concentration. Further test concentrations are prepared by dilution with emulsifier containing water.
# as §3, §4
# [5] = tested on: mustard beetle larvae (Phaedon cochleariae); test: Phaedon cochleariae spray test (Example A3, Chinese cabbage leaf disks)
# Procedure: as §5
# Chinese cabbage (Brassica pekinensis) leaf disks are sprayed with a preparation of the active ingredient of the desired concentration. Once dry, the leaf disks are infested with mustard beetle larvae (Phaedon cochleariae).
# as §2
# [6] = tested on: caterpillars of the fall army worm (Spodoptera frugiperda); test: Spodoptera frugiperda spray test (Example C1, cotton leaves)
# Procedure: (§6) Solvent: 7 parts by weight of dimethylformamide
# (§7) Emulsifier: alkylaryl polyglycol ether
# as §5, with “solvent” for “solvents”, “water Ammonium salt and/or penetration enhancer in a dosage of 1000 ppm are added if necessary.” for “water.”
# Cotton leaves (Gossypium hirsutum) are treated by being sprayed with the preparation of the active compound of the desired concentration and are infested with caterpillars of the fall army worm (Spodoptera frugiperda).
# After the specified period of time mortality in % is determined. 100% means all the caterpillars have been killed and 0% means none of the caterpillars have been killed. The mortality values determined thus are recalculated using the Colby-formula (see sheet 1).
# [7] = tested on: mustard beetle larvae (Phaedon cochleariae); test: Phaedon cochleariae spray test (Example A2, cabbage leaves)
# Procedure: as §6, §7
# as §5, with “solvent” for “solvents”, “water Ammonium salt and/or penetration enhancer in a dosage of 1000 ppm are added to the desired concentration if necessary.” for “water.”
# Cabbage leaves (Brassica oleracea) are treated by being sprayed with the preparation of the active compound of the desired concentration and are infested with mustard beetle larvae (Phaedon cochleariae).
# After the specified period of time mortality in % is determined. 100% means all the beetle larvae have been killed and 0% means none of the beetle larvae have been killed. The mortality values determined thus are recalculated using the Colby-formula (see sheet 1).
smiles,measurement,setting,value
CCOC(=O)OC1=C(c2cc(C)ccc2C)C(=O)N[C@]12CC[C@@H](OC)CC2 [Spirotetramat],Efficacy in % after 6 d,[1]; 0.8 g ai/ha,0%
same,Efficacy in % after 6 d,[2]; 15 g ai/ha,0%
same,Efficacy in % after 6 d,[3]; 0.8 g ai/ha,30%
same,Efficacy in % after 6 d,[3]; 2 g ai/ha,20%
O=C(NC(=O)c1c(F)cccc1F)Nc1cc(Cl)c(Oc2ncc(C(F)(F)F)cc2Cl)c(Cl)c1 [Chlorfluazuron],Efficacy in % after 2 d,[4]; 2 g ai/ha,0%
same,Efficacy in % after 6 d,[4]; 2 g ai/ha,0%
same,Efficacy in % after 6 d,[5]; 8 g ai/ha,0%
same,Efficacy in % after 2 d,[6]; 0.4 ppm,0%
same,Efficacy in % after 3 d,[6]; 0.4 ppm,30%
Cc1cc(C(F)(C(F)(F)F)C(F)(F)F)ccc1NC(=O)c1cccc(Cl)c1C(=O)NC(C)(C)C#N [(I-5)],Efficacy in % after 6 d,[1]; 4 g ai/ha,0%
same,Efficacy in % after 2 d,[4]; 1 g ai/ha,0%
same,Efficacy in % after 6 d,[4]; 1 g ai/ha,33%
same,Efficacy in % after 2 d,[7]; 0.8 ppm,0%
same,Efficacy in % after 1 d,[7]; 1.6 ppm,0%
same,Efficacy in % after 6 d,[5]; 2 g ai/ha,0%
same,Efficacy in % after 2 d,[5]; 4 g ai/ha,0%
same,Efficacy in % after 6 d,[5]; 4 g ai/ha,0%
same,Efficacy in % after 6 d,[2]; 0.25 g ai/ha,0%
same,Efficacy in % after 6 d,[2]; 3 g ai/ha,33%
same,Efficacy in % after 6 d,[3]; 2 g ai/ha,0%
same,Efficacy in % after 6 d,[3]; 4 g ai/ha,0%
same,Efficacy in % after 6 d,[3]; 10 g ai/ha,0%
same,Efficacy in % after 2 d,[6]; 0.04 ppm,0%
same,Efficacy in % after 3 d,[6]; 0.04 ppm,0%
same,Efficacy in % after 2 d,[6]; 0.08 ppm,10%
same,Efficacy in % after 3 d,[6]; 0.08 ppm,20%
CCOCn1c(-c2ccc(Cl)cc2)c(C#N)c(Br)c1C(F)(F)F [Chlorfenapyr],Efficacy in % after 2 d,[7]; 4 ppm,20%
same,Efficacy in % after 1 d,[7]; 8 ppm,5%
same,Efficacy in % after 6 d,[5]; 4 g ai/ha,0%
same,Efficacy in % after 3 d,[6]; 0.8 ppm,0%
same,Efficacy in % after 2 d,[6]; 1.6 ppm,0%
COC(=O)N(C(=O)N1CO[C@@]2(C(=O)OC)Cc3cc(Cl)ccc3C2=N1)c1ccc(OC(F)(F)F)cc1 [Indoxacarb],Efficacy in % after 2 d,[4]; 0.1 g ai/ha,0%
same,Efficacy in % after 6 d,[4]; 0.1 g ai/ha,0%
same,Efficacy in % after 6 d,[5]; 4 g ai/ha,0%
same,Efficacy in % after 2 d,[5]; 8 g ai/ha,50%
same,Efficacy in % after 6 d,[5]; 8 g ai/ha,50%
same,Efficacy in % after 2 d,[6]; 0.2 ppm,10%
same,Efficacy in % after 3 d,[6]; 0.2 ppm,20%
